Test systems include A549 NSCLC; EKVX NSCLC; HOP-62 NSCLC; KM12 colon; MCF7 breast; NCI-H23 lung; OVCAR-4 ovarian; SW-620 colon; TK-10 renal; MDA-N.
Common to all, as to assay: DTP human tumour cell line panel, 48 h

Molecules are shown by their SMILES.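 Five concentrations, 48 hours, 96-well plates. TGI: concentration producing complete growth inhibition.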

As usually defined, the TGI is the concentration giving total growth inhibition. Lower therefore signals more potent growth arrest.

For the compound `O=S1(=O)NC(=NCc2c[nH]c3ccccc23)N(c2ccccc2)c2ccncc21`, the TGI with A549 NSCLC, in the assay on EKVX NSCLC, with HOP-62 NSCLC, in the assay on KM12 colon, in the assay with MCF7 breast and in the assay on NCI-H23 lung was over 100 µM throughout. Further, the TGI in the assay on OVCAR-4 ovarian, in the assay with SW-620 colon and in the assay with TK-10 renal was over 100 µM in each case.
In the case of `c1ccc(N=C2SC3=Nc4cccc5cccc(c45)N3C2=Nc2ccccc2)cc1`, the TGI in the assay on HOP-62 NSCLC, in the assay with KM12 colon, in the assay with MCF7 breast, in the assay on MDA-N and in the assay on NCI-H23 lung was over 100 µM throughout.
With `CCC12C=CCN3CCC4(C(=C(C(=O)OC)[C@@H]1O)Nc1ccccc14)C32` (some centres undefined), the TGI came to 5.15 µM in the assay with A549 NSCLC; 3.92 µM with EKVX NSCLC; 4.12 µM with HOP-62 NSCLC; 3.19 µM in the assay on KM12 colon; 3.72 µM in the assay on NCI-H23 lung; 4.17 µM in the assay on OVCAR-4 ovarian. Moreover, the TGI is 3.3 µM in the assay on SW-620 colon and 5.37 µM in the assay on TK-10 renal.
With `CC(=O)Nc1ccc(-c2nnc(SCC(=O)Nc3ccc([N+](=O)[O-])cc3)o2)cc1`, the TGI is 37 µM in the assay with A549 NSCLC; 53.4 µM in the assay with HOP-62 NSCLC; 27.7 µM in the assay on KM12 colon; 25 µM in the assay with NCI-H23 lung; 26.3 µM in the assay with OVCAR-4 ovarian; 29.7 µM with SW-620 colon. In the assay with TK-10 renal, the TGI is 27.9 µM.
Turning to `Cc1ccccc1-n1c(=O)c2ncn(CCCl)c2n(-c2ccccc2C)c1=S`, the TGI with A549 NSCLC, in the assay with EKVX NSCLC, with HOP-62 NSCLC, with KM12 colon, in the assay with MCF7 breast and with NCI-H23 lung was over 100 µM each time. The TGI with OVCAR-4 ovarian, with SW-620 colon and in the assay on TK-10 renal was over 100 µM in each case.
For the compound `COc1cc2c(cc1OC)C(c1ccccc1CCCCl)=NCC2`, the TGI with A549 NSCLC, with EKVX NSCLC, in the assay with HOP-62 NSCLC, in the assay with KM12 colon, with MCF7 breast and in the assay on NCI-H23 lung was over 100 µM throughout. For the same compound, the TGI in the assay on OVCAR-4 ovarian, in the assay on SW-620 colon and with TK-10 renal was over 100 µM throughout.
On to `COC(=O)[C@H](Cc1c[nH]c2ccccc12)NP(=O)(O)OCC1C=CC(n2cc(C)c(=O)[nH]c2=O)O1` (some centres undefined), for which the TGI in the assay with EKVX NSCLC, in the assay with HOP-62 NSCLC, in the assay on KM12 colon, in the assay with MDA-N, with NCI-H23 lung and in the assay on OVCAR-4 ovarian was over 100 µM each time. In the assay on SW-620 colon, this compound came in with a TGI of over 100 µM.
`COc1cc([C@@H]2c3cc4c(cc3[C@@H](Nc3ccc([N+](=O)[O-])cc3C(=O)c3ccccc3)[C@H]3COC(=O)[C@H]23)OCO4)cc(OC)c1OC`: the TGI in the assay on A549 NSCLC was over 100 µM; in the assay on EKVX NSCLC, over 100 µM; in the assay on HOP-62 NSCLC it was over 100 µM; in the assay on KM12 colon it was over 100 µM; in the assay with MCF7 breast it was over 100 µM; in the assay on NCI-H23 lung, over 28.6 µM. Also, the TGI in the assay with OVCAR-4 ovarian, with SW-620 colon and with TK-10 renal was over 100 µM each time.
`CC(=O)NC1=C(NCCC(C)C)C(=O)c2ccccc2C1=O`: the total growth inhibition concentration (TGI) in the assay on A549 NSCLC, with EKVX NSCLC, with HOP-62 NSCLC, with KM12 colon, with NCI-H23 lung and in the assay on OVCAR-4 ovarian was over 50 µM throughout. The TGI in the assay with SW-620 colon and in the assay on TK-10 renal was over 50 µM each time.
Consider `CC(C)CCCCCCCCCCCCC(=O)NCC(=O)NC1C(C)OC(Nc2ncnc3c2ncn3C)C(O)C1O` (centres undefined), for which the total growth inhibition concentration (TGI) in the assay with A549 NSCLC was over 100 µM; in the assay with EKVX NSCLC, over 100 µM; in the assay with HOP-62 NSCLC, over 34.2 µM; in the assay on KM12 colon it was over 100 µM; in the assay with MCF7 breast it was over 100 µM; with NCI-H23 lung it was over 100 µM. Further, the total growth inhibition concentration (TGI) in the assay on OVCAR-4 ovarian and in the assay on SW-620 colon was over 100 µM each time.
Turning to `C[n+]1c2ccccc2c(/C=N\NS(=O)(=O)c2ccc(O)c(C(=O)O)c2)c2ccccc21`, the TGI in the assay with A549 NSCLC, in the assay on EKVX NSCLC, in the assay with HOP-62 NSCLC, in the assay on KM12 colon, in the assay on NCI-H23 lung and with OVCAR-4 ovarian was over 100 µM each time. Further, the TGI in the assay with SW-620 colon and with TK-10 renal was over 100 µM each time.
Regarding `N.N.N.N.O=[N+]([O-])[O-].[Co+3].[N-]=[N+]=[N-].[N-]=[N+]=[N-]`, the TGI in the assay with A549 NSCLC, with EKVX NSCLC, in the assay on HOP-62 NSCLC, with KM12 colon, in the assay on NCI-H23 lung and in the assay with OVCAR-4 ovarian was over 100 µM in each case. Further, the TGI in the assay with SW-620 colon and in the assay on TK-10 renal was over 100 µM in each case.
On to `CNS(=O)(=O)NNS(=O)(=O)c1ccc2ccccc2c1`, for which the TGI with A549 NSCLC, in the assay on EKVX NSCLC, in the assay on HOP-62 NSCLC, in the assay with KM12 colon, in the assay on NCI-H23 lung and in the assay on OVCAR-4 ovarian was over 100 µM each time. Besides, the TGI with SW-620 colon and with TK-10 renal was over 100 µM in each case.
Consider `COc1ccc(C2c3cc4c(cc3OC(NNS(=O)(=O)c3ccc(C)cc3)C2C)OCO4)cc1` (centres undefined), for which the TGI in the assay on A549 NSCLC, with HOP-62 NSCLC, in the assay with KM12 colon, in the assay with MCF7 breast, in the assay on MDA-N and with NCI-H23 lung was over 100 µM throughout. Moreover, the total growth inhibition concentration (TGI) with SW-620 colon and with TK-10 renal was over 100 µM throughout.
`CN(C)CC[N+]1=Nc2cccc3cccc(c23)N1`: the TGI in the assay with A549 NSCLC, with EKVX NSCLC, in the assay with HOP-62 NSCLC, in the assay on KM12 colon, in the assay with NCI-H23 lung and in the assay on OVCAR-4 ovarian was over 100 µM throughout. The TGI in the assay with SW-620 colon is over 58 µM; in the assay with TK-10 renal, over 100 µM.
`N#CN=C(N(Cc1ccccc1)Cc1ccccc1)N(Cc1ccccc1)Cc1ccccc1`: the TGI with A549 NSCLC, in the assay on EKVX NSCLC, with HOP-62 NSCLC, in the assay with KM12 colon and with SW-620 colon was over 100 µM each time.

Values taken from PubChem BioAssay (NCI).
